{"source": "patent US7820148B2", "about": "“Use of a complex nutritional base in cosmetics, in particular for the hair” (priority 2004, dated 2010)", "test_system": "scalp fragments", "test": "Example 4: cell proliferation (anti-Ki67 immunohistochemistry) in root and outer epithelial sheath of scalp fragments kept in survival", "type": "cell-based, human", "details": "N = 6, 48 hours", "method": "The aim of the present study is to identify the effectiveness of a CNB according to the invention and according to Table 2, on the stimulation of the root. The cell proliferation, using the anti-Ki67 antibody, was evaluated in the matrix zone of the root (growth zone of the stem), but also in the outer epithelial sheath of the follicle.\nScalp fragments from 6 different donors (cervico-facial lift of a non-alopecia subject) were deposited in inserts, themselves positioned on culture wells.\nContaining no preservative, antibiotics were added to all these tested media (fungizone, gentamycin). They were added daily to the bottom of the wells, a passage taking place by slow diffusion between the two compartments via a porous membrane (12 μm).\nThe scalp fragments were kept in survival in a stove at 37° C. and in an air/5% CO2 atmosphere for 48 hours.\nThe scalp fragments were fixed in Bouin's liquid and set in paraffin.\nThe immunohistochemical evaluation of proliferation was carried out in the root and in the outer epithelial sheath surrounding the hair. This outer sheath is histologically considered as the prolongation of the surface epidermis.\nEpithelial proliferation was analyzed by immunohistochemistry using an anti-Ki67 antibody (for labelling cells M, S, G1 and G2 of the cell cycle). Immunodetection was carried out using an indirect immunoperoxidase technique in 3 layers, amplified by (DAKO kit) and developed in AEC.\nThe number of labelled cells of the outer epithelial sheath was counted between the origin of the sebaceous glands and the beginning of the root zone. Furthermore, the labelled matrix cells in the roots were also counted. The percentage of cells undergoing proliferation was thereby calculated compared to the unlabelled cells.\nStatistical analysis was carried out by the Student's test of the reduced deviation or paired samples test. The significant threshold was set at 5%.", "note": "Where “and” joins values, the source holds several entries; their conditions need not be identical. Identical values can stand only once."}
{"smiles": "Nc1cc(N2CCCCC2)nc(N)[n+]1[O-]", "note": "[Minoxidil]", "values": [{"measurement": "% of labelled cells (anti-Ki67) in the outer epithelial sheath of the follicles", "setting": "Minoxidil 0.01% in PBS", "value": "10.2% and 10.2 ± 5%"}, {"measurement": "% of labelled matrix cells (anti-Ki67) in the root of the hair follicle", "setting": "Minoxidil 0.01% in PBS", "value": "4.2% and 4.2 ± 2.45%"}, {"measurement": "% of labelled cells (anti-Ki67) in the outer epithelial sheath of the follicles", "setting": "Minoxidil 2% in PBS", "value": "17.6% and 17.6 ± 7 %"}, {"measurement": "% of labelled matrix cells (anti-Ki67) in the root of the hair follicle", "setting": "Minoxidil 2% in PBS", "value": "11.60% and 11.6 ± 8.7%"}]}
